Experimental data: ChEMBL document CHEMBL1221263, “Preliminary studies of 3,4-dichloroaniline amides as antiparasitic agents: structure-activity analysis of a compound library in vitro against Trichomonas vaginalis” (Bioorg Med Chem Lett, 2010)

Key:
Trichomonas vaginalis [1] = assay: Antiparasitic activity against Trichomonas vaginalis G3 at 100 uM after 24 hrs by hemocytometric analysis; type: functional; details: G3, 24 h
Trichomonas vaginalis [2] = assay: Antiparasitic activity against Trichomonas vaginalis T1 at 100 uM after 24 hrs by hemocytometric analysis; type: functional; details: T1, 24 h
Trichomonas vaginalis [3] = assay: Antiparasitic activity against Trichomonas vaginalis T1 after 24 hrs by hemocytometric analysis; type: functional, organism-based; details: T1, 24 h
Trichomonas vaginalis [4] = assay: Antiparasitic activity against Trichomonas vaginalis G3 after 24 hrs by hemocytometric analysis; type: functional; details: G3, 24 h
[5] = Cytotoxicity against human CFU-GM cells; type: cell-based
[6] = Cytotoxicity against human erythroid progenitor cells; type: cell-based

SMILES | inhibition at 100 µM (Trichomonas vaginalis [1]) [%] | inhibition at 100 µM (Trichomonas vaginalis [2]) [%] | IC50 (Trichomonas vaginalis [3]) [µM] | IC50 (Trichomonas vaginalis [4]) [µM] | IC50 [5] [µM] | IC50 [6] [µM]
O=C(Nc1ccc(Cl)c(Cl)c1)c1ccc(Cl)cc1 | 28 | 46 | – | – | – | –
O=Cc1ccc(-c2ccc(Cl)cc2[N+](=O)[O-])o1 | 46 | 59 | – | – | – | –
COc1ccc(C(=O)Nc2ccc(Cl)c(Cl)c2)cc1 | 13 | 22 | – | – | – | –
O=C(Nc1ccc(Cl)c(Cl)c1)c1cccc2ccccc12 | 37 | 49 | – | – | – | –
COc1ccc(NC(=O)C2CCCCC2)cc1OC | 10 | 34 | – | – | – | –
COc1ccc(-c2ccccc2)cc1NC(=O)C1CCCCC1 | 28 | 36 | – | – | – | –
O=C(Nc1ccc(Cl)c(Cl)c1)C12CC3CC(CC(C3)C1)C2 | 19 | 0 | – | – | – | –
O=C(Nc1ccc(Cl)c(Cl)c1)c1cccc([N+](=O)[O-])c1 | 51 | 22 | – | – | – | –
O=C(Nc1ccc(O)cc1)C1CCCCC1 | 39 | 25 | – | – | – | –
O=C(Nc1ccc(Cl)c(Cl)c1)c1ccc([N+](=O)[O-])cc1 | 40 | 44 | – | – | – | –
O=C(Nc1ccc(Cl)c(Cl)c1)c1cccc(C(F)(F)F)c1 | 66 | 69 | 77 | 90 | – | –
O=C(Nc1ccc(Cl)c(Cl)c1)c1cccc(F)c1 | 61 | 29 | – | – | – | –
O=C(Nc1ccc(Cl)c(Cl)c1)c1cccc(Cl)c1 | 70 | 19 | – | – | – | –
O=C(Nc1ccc(Cl)c(Cl)c1)c1ccc(Cl)cc1Cl | 46 | 38 | – | – | – | –
O=C(Nc1ccc(Cl)c(Cl)c1)c1ccc(Cl)c(Cl)c1 | 55 | 29 | – | – | – | –
O=C(Nc1ccc(Cl)c(Cl)c1)C1CCCCC1 | 30 | 62 | – | – | – | –
O=C(Nc1ccc(Cl)c(Cl)c1)c1ccc(-c2ccccc2)cc1 | 24 | 64 | – | – | – | –
CC(=O)Nc1ccc(O)cc1 [ACETAMINOPHEN] | 14 | 17 | – | – | – | –
O=C1C(Cl)=C(Cl)C(=O)C(Cl)=C1Cl [CHLORANIL] | 40 | 12 | – | – | – | –
O=C1C=CC(=O)c2c(O)cccc21 [JUGLONE] | 49 | 39 | – | – | – | –
Cc1ncc([N+](=O)[O-])n1CCO [METRONIDAZOLE] | – | – | 0.72 | 0.77 | – | –
CCC(=O)Nc1ccc(Cl)c(Cl)c1 [PROPANIL] | 20 | 29 | 120 | – | > 500 | 305
